Assay results from patent US5053425A, “Novel anti-fungal compounds” (Merck & Co., Inc., priority 1990, dated 1991).
In brackets after ≈: the same amount, converted by molar mass.

What was measured:
Format in all cases: cell-based
[1] = system: Crypt. neoformans MY1051; assay: MIC and MFC, inhibitor dilution assay in microtiter format, Crypt. neoformans MY1051; conditions: Cryptococcus neoformans; for MFC: Crypt neoformans MY1051, no growth or no more than three colonies, read-out: Minimum Fungicidal Concentration; for MIC: Crypt. neoformans MY1051, 24 hours, 28° C., read-out: Minimum Inhibitory Concentration
Procedure: (§1) The compounds are particularly active towards filamentous fungi and yeasts including Candida albicans and Crypt neoformans. The sensitivity of filamentous fungi and yeast was determined using inhibitor dilution assays in microtiter format. The compounds were dissolved in DMSO at 2 mg/ml and serially diluted in 0.1M phosphate buffer, pH 7.0 in the microtiter dish from 100 to 0.006 μg/ml. A standardized spore suspension for testing the filamentous fungi was prepared by inoculating Antibiotic Medium #3 containing 1.5% agar with spores such that 1.5×10^3 colony forming units were added per well. The microtiter wells were filled with 50 μl of buffer containing compound and 50 μl of inoculated medium. The sensitivity of yeasts was determined by inoculating yeast nitrogen base containing 1% dextrose (YNB/G) with aliquots of an overnight yeast culture grown in yeast morphology (YM) media at 35° C. and diluting in YNB/G to yield a final concentration of 1.5-7.5×10^3 colony forming units/well. One hundred fifty μl of inoculated media was added per well. To test the sensitivity of yeast, compound was solubilized in 10 percent aqueous DMSO at 2.56 mg/ml. The compound was diluted serially in YNB/G from 128 to 0.06 μg/ml. The wells were filled with 150 μl of drug containing media. The minimum inhibitory concentration (MIC) is defined as the lowest concentration to prevent visible growth after an incubation for 42 hours, 28° C. for the filamentous fungi and 24 hours, 28° C. for the yeasts. […] Representative of the antifungal activity are the minimum inhibitory concentration and minimum fungicidal concentration data shown below: […]

[2] = system: Pen. italicum MF2819; assay: MIC, inhibitor dilution assay in microtiter format, Pen. italicum MF2819; conditions: Penicillium italicum; Pen. italicum MF2819, 42 hours, 28° C.; read-out: Minimum Inhibitory Concentration
Procedure: (§2) The compounds are particularly active towards filamentous fungi and yeasts including Candida albicans and Crypt neoformans. The sensitivity of filamentous fungi and yeast was determined using inhibitor dilution assays in microtiter format. The compounds were dissolved in DMSO at 2 mg/ml and serially diluted in 0.1M phosphate buffer, pH 7.0 in the microtiter dish from 100 to 0.006 μg/ml. A standardized spore suspension for testing the filamentous fungi was prepared by inoculating Antibiotic Medium #3 containing 1.5% agar with spores such that 1.5×10^3 colony forming units were added per well. The microtiter wells were filled with 50 μl of buffer containing compound and 50 μl of inoculated medium. The sensitivity of yeasts was determined by inoculating yeast nitrogen base containing 1% dextrose (YNB/G) with aliquots of an overnight yeast culture grown in yeast morphology (YM) media at 35° C. and diluting in YNB/G to yield a final concentration of 1.5-7.5×10^3 colony forming units/well. One hundred fifty μl of inoculated media was added per well. To test the sensitivity of yeast, compound was solubilized in 10 percent aqueous DMSO at 2.56 mg/ml. The compound was diluted serially in YNB/G from 128 to 0.06 μg/ml. The wells were filled with 150 μl of drug containing media. […]

[3] = system: C. tropicalis MY1012; assay: MIC and MFC, inhibitor dilution assay in microtiter format, C. tropicalis MY1012; conditions: Candida tropicalis; for MIC: C. tropicalis MY1012, 24 hours, 28° C., read-out: Minimum Inhibitory Concentration; for MFC: C. tropicalis MY1012, no growth or no more than three colonies, read-out: Minimum Fungicidal Concentration
Procedure: as §1

[4] = system: A. flavus MF383; assay: MIC, inhibitor dilution assay in microtiter format, A. flavus MF383; conditions: Aspergillus flavus; A. flavus MF383, 42 hours, 28° C.; read-out: Minimum Inhibitory Concentration
Procedure: as §2

[5] = system: Fus. oxysporum MF4014; assay: MIC, inhibitor dilution assay in microtiter format, Fus. oxysporum MF4014; conditions: Fusarium oxysporum; Fus. oxysporum MF4014, 42 hours, 28° C.; read-out: Minimum Inhibitory Concentration
Procedure: as §2

[6] = system: C. albicans MY1055; assay: MIC and MFC, inhibitor dilution assay in microtiter format, C. albicans MY1055; conditions: Candida albicans; for MIC: C. albicans MY1055, 24 hours, 28° C., read-out: Minimum Inhibitory Concentration; for MFC: C. albicans MY1055, no growth or no more than three colonies, read-out: Minimum Fungicidal Concentration
Procedure: as §1

[7] = system: T. Mentagrophytes MF4864; assay: MIC, inhibitor dilution assay in microtiter format, T. Mentagrophytes MF4864; conditions: Trichophyton mentagrophytes; T. Mentagrophytes MF4864, 42 hours, 28° C.; read-out: Minimum Inhibitory Concentration
Procedure: as §2

[8] = system: A. fumigatus MF4839; assay: MIC, inhibitor dilution assay in microtiter format, A. fumigatus MF4839; conditions: Aspergillus fumigatus; A. fumigatus MF4839, 42 hours, 28° C.; read-out: Minimum Inhibitory Concentration
Procedure: as §2

[9] = system: A. niger MF442; assay: MIC, inhibitor dilution assay in microtiter format, A. niger MF442; conditions: Aspergillus niger; A. niger MF442, 42 hours, 28° C.; read-out: Minimum Inhibitory Concentration
Procedure: as §2

[10] = system: Coch. miyabeanus MF4626; assay: MIC, inhibitor dilution assay in microtiter format, Coch. miyabeanus MF4626; conditions: Bipolaris oryzae, MF4626, 42 h, read-out: Minimum Inhibitory Concentration
Procedure: as §2

[11] = system: C. parapsilosis MY1010; assay: MIC and MFC, inhibitor dilution assay in microtiter format, C. parapsilosis MY1010; conditions: Lodderomyces parapsilosis; for MIC: C. parapsilosis MY1010, 24 hours, 28° C., read-out: Minimum Inhibitory Concentration; for MFC: C. parapsilosis MY1010, no growth or no more than three colonies, read-out: Minimum Fungicidal Concentration
Procedure: as §1

Compound	MFC [1] [µg/mL]	MIC [1] [µg/mL]	MIC [2] [µg/mL]	MIC [3] [µg/mL]	MFC [3] [µg/mL]	MIC [4] [µg/mL]	MIC [5] [µg/mL]	MIC [6] [µg/mL]	MFC [6] [µg/mL]	MIC [7] [µg/mL]	MIC [8] [µg/mL]	MIC [9] [µg/mL]	MIC [10] [µg/mL]	MIC [11] [µg/mL]	MFC [11] [µg/mL]
C=C(CCC12OC(C(=O)O)C(O)(C(=O)O)C(C(=O)O)(O1)C(OC(=O)C=CC(C)CC(C)CC)C2O)C(OC(C)=O)C(C)Cc1ccccc1 (centres unmarked) [Compound A]	0.5 (≈ 0.724 µM)	1 (≈ 1.45 µM)	6.2 (≈ 8.98 µM)	4 (≈ 5.79 µM)	2 (≈ 2.9 µM)	6.2 (≈ 8.98 µM)	> 100	8 (≈ 11.6 µM)	4 (≈ 5.79 µM)	4 (≈ 5.79 µM)	6.2 (≈ 8.98 µM)	25 (≈ 36.2 µM)	1.6 (≈ 2.32 µM)	8 (≈ 11.6 µM)	2 (≈ 2.9 µM)
C=C(CCC12OC(C(=O)OC)C(O)(C(=O)OC)C(C(=O)OC)(O1)C(OC(=O)C=CC(C)CC(C)CC)C2O)C(OC(C)=O)C(C)Cc1ccccc1 (centres unmarked) [Compound B]	> 128	> 128	–	> 128	> 128	> 128	–	> 128	> 128	> 128	> 128	–	–	> 128	> 128
